Like-named read-outs stand apart in the source and are kept apart here.
Key:
[1] = Analgesic activity, warm plate test; assay type: in vivo; details: Mus musculus, 1 h, female mice, 56° C. plate, 60 minutes after treatment, read-out: AD100 (dose which increased the reaction time by 100%)
Procedure: Female mice weighing from 22 to 24 g were placed one by one on a copper plate maintained at 56° C. The reaction to pain was shown by the animals licking their front paws and the time of this reaction was noted and was only retained when the mice reacted in less than 8 seconds. The animals were divided into equal groups and were treated with the products to be studied, one group receiving only the vehicle. The time of reaction to pain was again measured 30 to 60 minutes after the treatment and the active dose or AD100 was the dose which increased the reaction time by 100%, 60 minutes after the treatment, taking account of the variations of the reaction time of the control animals.

opiate receptor μ = target: T1, opiate receptor μ (Rattus norvegicus, UniProt P33535); test: Bond to the opiate receptor μ in vitro (displacement of 3H dihydromorphine, rat brain membranes); assay type: binding, rats; details: for IC50: 3H dihydromorphine 0.7 nM, rat brain membranes, Tris buffer pH 7.7, 25° C., 40 minutes, read-out: 50% inhibiting concentration (IC50); for relative bond affinity (RBA): relative to morphine=100
T1 construct: prepared from brains of rats; from tissue; host or cells: rat brain membranes
T1 sequence (P33535 whole entry): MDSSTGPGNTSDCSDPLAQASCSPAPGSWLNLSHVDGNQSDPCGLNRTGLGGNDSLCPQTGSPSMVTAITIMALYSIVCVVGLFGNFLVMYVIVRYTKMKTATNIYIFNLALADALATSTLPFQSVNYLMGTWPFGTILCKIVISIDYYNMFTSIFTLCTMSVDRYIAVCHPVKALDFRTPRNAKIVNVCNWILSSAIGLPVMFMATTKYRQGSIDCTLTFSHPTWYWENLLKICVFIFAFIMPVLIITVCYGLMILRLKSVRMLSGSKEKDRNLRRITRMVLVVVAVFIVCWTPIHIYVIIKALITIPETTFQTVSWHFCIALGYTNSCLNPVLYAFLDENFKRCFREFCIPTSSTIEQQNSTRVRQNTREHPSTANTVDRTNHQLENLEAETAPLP
Procedure: (1) Bond to the opiate receptor μ in vitro
Membrane residues preserved at -30° C. for about 30 days and prepared from brains of rats were used in this test and these residues were suspended in Tris buffer pH 7.7. Fractions of 2 ml were distributed into hemolysis tubes and ^3 H dihydromorphine 0.7 nM and the product to be studied were added. The products were first of all tested with 5×10^-6 M in triplicate. When the tested products displaced more than 50% of the radioactivity specifically linked to the receptor, they were tested again according to a range of 7 doses to determine the dose which inhibited by 50% the radioactivity specifically linked to the receptor. The 50% inhibiting concentration was thus determined.
The non-specific bond was determined by addition of 10^-5 M morphine in triplicate. After incubating at 25° C. for 40 minutes, returning to the water-bath at 0° C. for 5 minutes, filtering under vacuum, rinsing with Tris buffer pH 7.7, the radioactivity was counted in the presence of scintillating Trition. The results were expressed: either directly as 50% inhibiting concentration (IC50), that is as a concentration of the product studied, expressed in nM, necessary to displace 50% of the specific radioactivity fixed on the receptor studied, or in relative bond affinity (RBA), taking morphine=100 as a reference [formula]

opiate receptor K = target: T2, opiate receptor K (Cavia porcellus, UniProt P41144); test: Bond to the opiate receptor K in vitro (displacement of 3H Ethylketocyclazocin, guinea-pig cerebellum membranes); assay type: binding; details: for IC50: 3H Ethylketocyclazocin 1 nM, guinea-pig cerebellum membranes, Tris buffer pH 7.7, 25° C., 40 minutes, read-out: 50% inhibiting concentration (IC50); for relative bond affinity (RBA): relative to product U 50 488 H as reference
T2 construct: Membrane residues prepared from guinea-pig cerebellum; from tissue; host or cells: guinea-pig cerebellum membranes
T2 sequence (P41144 whole entry): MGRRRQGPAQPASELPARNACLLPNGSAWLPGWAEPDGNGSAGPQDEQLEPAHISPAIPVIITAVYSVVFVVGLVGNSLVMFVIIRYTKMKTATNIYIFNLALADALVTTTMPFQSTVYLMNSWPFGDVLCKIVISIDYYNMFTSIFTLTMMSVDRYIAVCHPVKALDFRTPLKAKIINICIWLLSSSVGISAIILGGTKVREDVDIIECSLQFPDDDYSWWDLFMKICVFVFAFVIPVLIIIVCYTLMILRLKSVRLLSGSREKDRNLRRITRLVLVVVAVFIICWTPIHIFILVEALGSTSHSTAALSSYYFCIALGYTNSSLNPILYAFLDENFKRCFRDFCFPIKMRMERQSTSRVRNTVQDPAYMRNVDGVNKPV
Procedure: (2) Bond to the opiate receptor K in vitro
Membrane residues prepared from guinea-pig cerebellum kept at -30° C. for about 30 days were used and these residues were suspended in Tris buffer pH 7.7. Fractions of 2 ml were distributed into hemolysis tubes, and […] Ethylketocyclazocin 1 nM and the product to be studied were added. The products were first tested to 5×10^-6 M in triplicate. When the products tested displaced more than 50% of the radioactivity specifically linked to the receptor, they were tested again according to a range of 7 doses to determine the dose which inhibited by 50% the radioactivity specifically linked to the receptor. In this way, the 50% inhibiting concentration was determined.
The non-specific bond was determined by the addition of a product known as U 50488 H(ref. Up. John) to 10^-5 M in triplicate. After incubating at 25° C. for 40 minutes, returning to the water-bath at 0° C. for 5 minutes, filtering under reduced pressure, and rinsing in Tris buffer pH 7.7, the radioactivity was counted in the presence of scintillating Trition. The results were expressed: either directly as 50% inhibiting concentration (IC50), that is as a concentration of the product studied, expressed in nM, necessary to displace 50% of the specific radioactivity fixed on the receptor studied, or in relative bond affinity (=RBA) taking the product U 50 488 H as reference [formula]

Q: For `C=CCOc1ccccc1OCC(O)CN1CC=C(c2cccc3c2CC(=O)N3)CC1` (centres unmarked) [Example 13, 1,3-dihydro-4-[1-[2-hydroxy-3-[2-(2-propenyloxy)-phenoxy]propyl]-1,2,3,6-tetrahydro-4-pyridinyl]-2H-indol-2-one], which ED (100% increase in reaction time) ([1]; oral route) is on record?
A: 20 mg/kg

Q: What about the IC50 (opiate receptor μ) of the same molecule?
A: 0.0014 µM

Q: What about the “relative bond affinity (RBA)” value (opiate receptor μ) of the same molecule?
A: 270

Q: What does the source list for `Cl.O=C1Cc2c(cccc2C2=CCN(CCCC(=O)c3ccc(F)cc3)CC2)N1` [Example 32, 1,3-dihydro-4-[1-[(4-fluorophenyl)-4-oxobutyl]-1,2,3,6-tetrahydropyridin-4-yl]-2H-indole-2-one hydrochloride]?
A: IC50 (opiate receptor μ): 0.0035 µM; relative bond affinity (RBA) (opiate receptor μ): 62; IC50 (opiate receptor K): 0.46 µM; relative bond affinity (RBA) (opiate receptor K): 1.3

Q: Which results are given for `Cl.O=C1Cc2c(cccc2C2=CCN(CCOc3ccccc3)CC2)N1` [Example 29, 1,3-dihydro-4-[1-(2-phenoxyethyl)-1,2,3,6-tetrahydro-4-pyridinyl]-2H-indol-2-one hydrochloride]?
A: IC50 (opiate receptor μ): 0.011 µM; relative bond affinity (RBA) (opiate receptor μ): 23; IC50 (opiate receptor K): 0.152 µM; relative bond affinity (RBA) (opiate receptor K): 1.1

Q: With `CCCN1CC=C(c2cccc3[nH]ccc23)CC1` [Example 7, 4-(1-propyl-1,2,3,6-tetrahydropyridin-4-yl)-1H-indole] as the molecule, how does the IC50 (opiate receptor K) read?
A: 0.182 µM

Q: And the “relative bond affinity (RBA)” value (opiate receptor K)?
A: 1.4

Q: For `COC1(c2cccc3[nH]ccc23)CCNCC1` [Example 14, 4-(4-methoxy-4-piperidinyl)-1H-indole], which ED (100% increase in reaction time) ([1]; central, intracerebral ventricle route) is on record?
A: 0.5 mg/kg

Q: What about the IC50 (opiate receptor μ) of the same molecule?
A: 0.028 µM

Q: And the “relative bond affinity (RBA)” value (opiate receptor μ)?
A: 13

Q: Which IC50 (opiate receptor μ) does the source give for `C=CCOc1ccccc1OCC(O)CN1CC=C(c2cccc3[nH]ccc23)CC1` (stereo not drawn) [Example 11, 4-(1H-indol-4-yl)-α-[[2-(2-propenyloxy)-phenoxy]-methyl]-1,2,3,6-tetrahydro-1-pyridine ethanol] here?
A: 0.00943 µM

Q: And the “relative bond affinity (RBA)” value (opiate receptor μ)?
A: 22.43

Q: With `Cl.O=C1Cc2c(cccc2C2=CCN(CCc3ccccc3)CC2)N1` [Example 26, 1,3-dihydro-4-[1-(2-phenylethyl)-1,2,3,6-tetrahydro-4-pyridinyl]-2H-indole-2-one hydrochloride] as the molecule, how does the IC50 (opiate receptor μ) read?
A: 0.059 µM

Q: And the “relative bond affinity (RBA)” value (opiate receptor μ)?
A: 8.2
